Measured values as given in ChEMBL document CHEMBL1138025, “Nocathiacin I analogues: synthesis, in vitro and in vivo biological activity of novel semi-synthetic thiazolyl peptide antibiotics” (Bioorg Med Chem Lett, 2004).
≈ marks a conversion by molar mass, not a printed value.

Experiments:
Staphylococcus aureus = assay: In vitro antibacterial activity against methicillin-sensitive Staphylococcus aureus A15090; type: functional
Enterococcus faecalis = assay: In vitro antibacterial activity against methicillin-sensitive Enterococcus faecalis A20688; type: functional
Streptococcus pneumoniae = assay: In vitro antibacterial activity against penicillin-resistant Streptococcus pneumoniae A28272; type: functional
Mus musculus = assay: In vivo efficacy (PD50) against lethal Staphylococcus aureus systemic infection model in mice; type: functional; conditions: read-out: PD50
[1] = Equilibrium water solubility at pH 3.4; type: physicochemical
[2] = Equilibrium water solubility at pH 3.0; type: physicochemical
[3] = Equilibrium water solubility at pH 3.1; type: physicochemical
[4] = Equilibrium water solubility at pH 2.9; type: physicochemical

Structure (SMILES) | MIC (Staphylococcus aureus) [µg/mL] | MIC (Enterococcus faecalis) [µg/mL] | MIC (Streptococcus pneumoniae) [µg/mL] | ED50 (Mus musculus) [mg/kg] | solubility thermodynamic [1] [µg/mL] | solubility thermodynamic [2] [µg/mL] | solubility thermodynamic [3] [µg/mL] | solubility thermodynamic [4] [µg/mL]
CO/C(C)=C1/NC(=O)[C@H]([C@@H](C)O)NC(=O)c2csc(n2)-c2cc(O)c(-c3nc(C(=O)NC(CNCCc4ccccn4)C(N)=O)cs3)nc2-c2csc(n2)C2COC(=O)c3c4c5c(cccc5n3O)COC(=O)[C@@H](O[C@H]3C[C@](C)(O)[C@H](N(C)C)[C@H](C)O3)[C@@H](OC4)[C@H](NC(=O)c3csc1n3)c1nc(cs1)C(=O)N2 (stereo partly drawn) | 1 (≈ 0.641 µM) | 1 (≈ 0.641 µM) | 0.25 (≈ 0.16 µM) | 2.8 | > 10000 | – | – | –
CO/C(C)=C1/NC(=O)[C@H]([C@@H](C)O)NC(=O)c2csc(n2)-c2cc(O)c(-c3nc(C(=O)NC(CN4CCN(CCN5CCOCC5)CC4)C(N)=O)cs3)nc2-c2csc(n2)[C@@H]2COC(=O)c3c4c5c(cccc5n3O)COC(=O)[C@@H](O[C@H]3C[C@](C)(O)[C@H](N(C)C)[C@H](C)O3)[C@@H](OC4)[C@H](NC(=O)c3csc1n3)c1nc(cs1)C(=O)N2 (stereo partly drawn) | 0.25 (≈ 0.153 µM) | 0.5 (≈ 0.305 µM) | 0.06 (≈ 0.0367 µM) | 1.4 | – | > 12300 | – | –
CO/C(C)=C1/NC(=O)[C@H]([C@@H](C)O)NC(=O)c2csc(n2)-c2cc(O)c(-c3nc(C(=O)NC(CNCCN(C)C)C(N)=O)cs3)nc2-c2csc(n2)[C@@H]2COC(=O)c3c4c5c(cccc5n3O)COC(=O)[C@@H](O[C@H]3C[C@](C)(O)[C@H](N(C)C)[C@H](C)O3)[C@@H](OC4)[C@H](NC(=O)c3csc1n3)c1nc(cs1)C(=O)N2 (stereo partly drawn) | 2 (≈ 1.31 µM) | 4 (≈ 2.62 µM) | 0.03 (≈ 0.0197 µM) | 4.2 | – | – | > 3800 | –
CO/C(C)=C1/NC(=O)[C@H]([C@@H](C)O)NC(=O)c2csc(n2)-c2cc(O)c(-c3nc(C(=O)NC(CN(CCO)CCO)C(N)=O)cs3)nc2-c2csc(n2)[C@@H]2COC(=O)c3c4c5c(cccc5n3O)COC(=O)[C@@H](O[C@H]3C[C@](C)(O)[C@H](N(C)C)[C@H](C)O3)[C@@H](OC4)[C@H](NC(=O)c3csc1n3)c1nc(cs1)C(=O)N2 (stereo partly drawn) | 0.12 (≈ 0.0778 µM) | 0.25 (≈ 0.162 µM) | 0.01 (≈ 0.00648 µM) | 5 | – | – | – | > 1700
CO/C(C)=C1/NC(=O)[C@H]([C@@H](C)O)NC(=O)c2csc(n2)-c2cc(O)c(-c3nc(C(=O)NC(CN4CCOCC4)C(N)=O)cs3)nc2-c2csc(n2)[C@@H]2COC(=O)c3c4c5c(cccc5n3O)COC(=O)[C@@H](O[C@H]3C[C@](C)(O)[C@H](N(C)C)[C@H](C)O3)[C@@H](OC4)[C@H](NC(=O)c3csc1n3)c1nc(cs1)C(=O)N2 (stereo partly drawn) | 0.007 (≈ 0.00459 µM) | 0.01 (≈ 0.00656 µM) | 0.01 (≈ 0.00656 µM) | 0.8 | – | – | > 2100 | –
CO/C(C)=C1/NC(=O)[C@H]([C@@H](C)O)NC(=O)c2csc(n2)-c2cc(O)c(-c3nc(C(=O)NC(CN4CCN(C)CC4)C(N)=O)cs3)nc2-c2csc(n2)[C@@H]2COC(=O)c3c4c5c(cccc5n3O)COC(=O)[C@@H](O[C@H]3C[C@](C)(O)[C@H](N(C)C)[C@H](C)O3)[C@@H](OC4)[C@H](NC(=O)c3csc1n3)c1nc(cs1)C(=O)N2 (stereo partly drawn) | 0.25 (≈ 0.163 µM) | 0.5 (≈ 0.325 µM) | 0.12 (≈ 0.078 µM) | 1.4 | > 10000 | – | – | –
CO/C(C)=C1/NC(=O)[C@H]([C@@H](C)O)NC(=O)c2csc(n2)-c2cc(O)c(-c3nc(C(=O)NC(CNCCNC(C)=O)C(N)=O)cs3)nc2-c2csc(n2)[C@@H]2COC(=O)c3c4c5c(cccc5n3O)COC(=O)[C@@H](O[C@H]3C[C@](C)(O)[C@H](N(C)C)[C@H](C)O3)[C@@H](OC4)[C@H](NC(=O)c3csc1n3)c1nc(cs1)C(=O)N2 (stereo partly drawn) | 1 (≈ 0.649 µM) | 4 (≈ 2.6 µM) | 0.12 (≈ 0.0779 µM) | > 10 | – | – | > 3000 | –
CCOC(=O)CN1CCN(CC(NC(=O)c2csc(-c3nc4c(cc3O)-c3nc(cs3)C(=O)N[C@@H]([C@@H](C)O)C(=O)N/C(=C(\C)OC)c3nc(cs3)C(=O)N[C@@H]3c5nc(cs5)C(=O)N[C@@H](COC(=O)c5c6c7c(cccc7n5O)COC(=O)[C@@H](O[C@H]5C[C@](C)(O)[C@H](N(C)C)[C@H](C)O5)[C@H]3OC6)c3nc-4cs3)n2)C(N)=O)CC1 (stereo partly drawn) | 0.06 (≈ 0.0373 µM) | 0.25 (≈ 0.155 µM) | 0.007 (≈ 0.00435 µM) | – | – | – | – | –
CO/C(C)=C1/NC(=O)[C@H]([C@@H](C)O)NC(=O)c2csc(n2)-c2cc(O)c(-c3nc(C(=O)NC(CN4CCN(c5ccncc5)CC4)C(N)=O)cs3)nc2-c2csc(n2)[C@@H]2COC(=O)c3c4c5c(cccc5n3O)COC(=O)[C@@H](O[C@H]3C[C@](C)(O)[C@H](N(C)C)[C@H](C)O3)[C@@H](OC4)[C@H](NC(=O)c3csc1n3)c1nc(cs1)C(=O)N2 (stereo partly drawn) | 0.25 (≈ 0.156 µM) | 0.5 (≈ 0.312 µM) | 0.06 (≈ 0.0375 µM) | 4.5 | – | > 12500 | – | –
CO/C(C)=C1/NC(=O)[C@H]([C@@H](C)O)NC(=O)c2csc(n2)-c2cc(O)c(-c3nc(C(=O)NC(CN(C)CCO)C(N)=O)cs3)nc2-c2csc(n2)[C@@H]2COC(=O)c3c4c5c(cccc5n3O)COC(=O)[C@@H](O[C@H]3C[C@](C)(O)[C@H](N(C)C)[C@H](C)O3)[C@@H](OC4)[C@H](NC(=O)c3csc1n3)c1nc(cs1)C(=O)N2 (stereo partly drawn) | 0.01 (≈ 0.00661 µM) | 0.06 (≈ 0.0397 µM) | 0.01 (≈ 0.00661 µM) | 0.8 | > 10000 | – | – | –
CO/C(C)=C1/NC(=O)[C@H]([C@@H](C)O)NC(=O)c2csc(n2)-c2cc(O)c(-c3nc(C(=O)NC(CN(C)CCN(C)C)C(N)=O)cs3)nc2-c2csc(n2)[C@@H]2COC(=O)c3c4c5c(cccc5n3O)COC(=O)[C@@H](O[C@H]3C[C@](C)(O)[C@H](N(C)C)[C@H](C)O3)[C@@H](OC4)[C@H](NC(=O)c3csc1n3)c1nc(cs1)C(=O)N2 (stereo partly drawn) | 0.06 (≈ 0.039 µM) | 0.5 (≈ 0.325 µM) | 0.007 (≈ 0.00455 µM) | 3.3 | – | – | – | > 10000
CO/C(C)=C1/NC(=O)[C@H]([C@@H](C)O)NC(=O)c2csc(n2)-c2cc(O)c(-c3nc(C(=O)NC(CN(C)CCCNc4ccncc4)C(N)=O)cs3)nc2-c2csc(n2)[C@@H]2COC(=O)c3c4c5c(cccc5n3O)COC(=O)[C@@H](O[C@H]3C[C@](C)(O)[C@H](N(C)C)[C@H](C)O3)[C@@H](OC4)[C@H](NC(=O)c3csc1n3)c1nc(cs1)C(=O)N2 (stereo partly drawn) | 1 (≈ 0.624 µM) | 0.5 (≈ 0.312 µM) | 0.25 (≈ 0.156 µM) | > 10 | – | > 3000 | – | –
CO/C(C)=C1/NC(=O)[C@H]([C@@H](C)O)NC(=O)c2csc(n2)-c2cc(O)c(-c3nc(C(=O)NC(CN4CCCC4)C(N)=O)cs3)nc2-c2csc(n2)[C@@H]2COC(=O)c3c4c5c(cccc5n3O)COC(=O)[C@@H](O[C@H]3C[C@](C)(O)[C@H](N(C)C)[C@H](C)O3)[C@@H](OC4)[C@H](NC(=O)c3csc1n3)c1nc(cs1)C(=O)N2 (stereo partly drawn) | 0.06 (≈ 0.0398 µM) | 0.5 (≈ 0.331 µM) | 0.01 (≈ 0.00663 µM) | 2.5 | – | – | – | > 3000
CO/C(C)=C1/NC(=O)[C@H]([C@@H](C)O)NC(=O)c2csc(n2)-c2cc(O)c(-c3nc(C(=O)NC(CN4CCN(c5cccnc5)CC4)C(N)=O)cs3)nc2-c2csc(n2)[C@@H]2COC(=O)c3c4c5c(cccc5n3O)COC(=O)[C@@H](O[C@H]3C[C@](C)(O)[C@H](N(C)C)[C@H](C)O3)[C@@H](OC4)[C@H](NC(=O)c3csc1n3)c1nc(cs1)C(=O)N2 (stereo partly drawn) | 0.06 (≈ 0.0375 µM) | 0.25 (≈ 0.156 µM) | 0.007 (≈ 0.00437 µM) | 1.43 | – | > 2300 | – | –
CO/C(C)=C1/NC(=O)[C@H]([C@@H](C)O)NC(=O)c2csc(n2)-c2cc(O)c(-c3nc(C(=O)NC(CN(C)CCN4CCCCC4)C(N)=O)cs3)nc2-c2csc(n2)[C@@H]2COC(=O)c3c4c5c(cccc5n3O)COC(=O)[C@@H](O[C@H]3C[C@](C)(O)[C@H](N(C)C)[C@H](C)O3)[C@@H](OC4)[C@H](NC(=O)c3csc1n3)c1nc(cs1)C(=O)N2 (stereo partly drawn) | 0.12 (≈ 0.076 µM) | 1 (≈ 0.633 µM) | 0.03 (≈ 0.019 µM) | 3.2 | – | > 2700 | – | –
CO/C(C)=C1/NC(=O)[C@H]([C@@H](C)O)NC(=O)c2csc(n2)-c2cc(O)c(-c3nc(C(=O)NC(CN4CCN(CCN(C)C)CC4)C(N)=O)cs3)nc2-c2csc(n2)[C@@H]2COC(=O)c3c4c5c(cccc5n3O)COC(=O)[C@@H](O[C@H]3C[C@](C)(O)[C@H](N(C)C)[C@H](C)O3)[C@@H](OC4)[C@H](NC(=O)c3csc1n3)c1nc(cs1)C(=O)N2 (stereo partly drawn) | 0.5 (≈ 0.314 µM) | 0.12 (≈ 0.0752 µM) | 0.25 (≈ 0.157 µM) | 5.3 | > 3800 | – | – | –
CO/C(C)=C1/NC(=O)[C@H]([C@@H](C)O)NC(=O)c2csc(n2)-c2cc(O)c(-c3nc(C(=O)NC(CN4CCN(c5ccccn5)CC4)C(N)=O)cs3)nc2-c2csc(n2)[C@@H]2COC(=O)c3c4c5c(cccc5n3O)COC(=O)[C@@H](O[C@H]3C[C@](C)(O)[C@H](N(C)C)[C@H](C)O3)[C@@H](OC4)[C@H](NC(=O)c3csc1n3)c1nc(cs1)C(=O)N2 (stereo partly drawn) | 0.12 (≈ 0.075 µM) | 0.25 (≈ 0.156 µM) | 0.03 (≈ 0.0187 µM) | < 0.62 | – | > 2400 | – | –
CNCCN(C)CC(NC(=O)c1csc(-c2nc3c(cc2O)-c2nc(cs2)C(=O)N[C@@H]([C@@H](C)O)C(=O)N/C(=C(\C)OC)c2nc(cs2)C(=O)N[C@@H]2c4nc(cs4)C(=O)N[C@@H](COC(=O)c4c5c6c(cccc6n4O)COC(=O)[C@@H](O[C@H]4C[C@](C)(O)[C@H](N(C)C)[C@H](C)O4)[C@H]2OC5)c2nc-3cs2)n1)C(N)=O (stereo partly drawn) | 0.06 (≈ 0.0393 µM) | 0.5 (≈ 0.328 µM) | 0.001 (≈ 0.000655 µM) | > 10 | – | > 2800 | – | –
CO/C(C)=C1/NC(=O)[C@H]([C@@H](C)O)NC(=O)c2csc(n2)-c2cc(O)c(-c3nc(C(=O)NC(CN4CCN(CCOCCO)CC4)C(N)=O)cs3)nc2-c2csc(n2)[C@@H]2COC(=O)c3c4c5c(cccc5n3O)COC(=O)[C@@H](O[C@H]3C[C@](C)(O)[C@H](N(C)C)[C@H](C)O3)[C@@H](OC4)[C@H](NC(=O)c3csc1n3)c1nc(cs1)C(=O)N2 (stereo partly drawn) | 0.5 (≈ 0.31 µM) | 1 (≈ 0.62 µM) | 0.12 (≈ 0.0745 µM) | 1.34 | – | – | > 3000 | –
